Patent publication US20230227398A1, “MESCALINE DERIVATIVES WITH MODIFIED ACTION” (Mind Medicine, Inc., priority 2021, published 2023)
Entries after “also recorded” stand apart in the source; their conditions may differ.

Assays:
5-HT2A receptor = 5-HT2A receptor (Homo sapiens, UniProt P28223); details: cited from earlier work
α2A receptors = target: T1, α2A receptors (Homo sapiens, UniProt P08913); details: background art; cited from earlier work
T1 sequence (P08913 1-465): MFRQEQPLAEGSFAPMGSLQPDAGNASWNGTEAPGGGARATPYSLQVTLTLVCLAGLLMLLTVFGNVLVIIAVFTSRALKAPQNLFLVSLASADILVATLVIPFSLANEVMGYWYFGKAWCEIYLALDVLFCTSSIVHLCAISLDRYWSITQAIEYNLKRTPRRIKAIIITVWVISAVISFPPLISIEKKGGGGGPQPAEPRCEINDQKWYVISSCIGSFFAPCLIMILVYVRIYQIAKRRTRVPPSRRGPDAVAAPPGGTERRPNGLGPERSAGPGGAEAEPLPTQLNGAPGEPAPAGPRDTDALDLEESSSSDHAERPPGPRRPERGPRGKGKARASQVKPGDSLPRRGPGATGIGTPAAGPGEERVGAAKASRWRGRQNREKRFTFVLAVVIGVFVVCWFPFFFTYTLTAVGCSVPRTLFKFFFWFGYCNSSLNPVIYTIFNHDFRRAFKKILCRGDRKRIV

5-HT1A receptor = target: T2, 5-HT1A receptor (Homo sapiens, UniProt P08908); details: background art; cited from earlier work
T2 sequence (P08908 1-422): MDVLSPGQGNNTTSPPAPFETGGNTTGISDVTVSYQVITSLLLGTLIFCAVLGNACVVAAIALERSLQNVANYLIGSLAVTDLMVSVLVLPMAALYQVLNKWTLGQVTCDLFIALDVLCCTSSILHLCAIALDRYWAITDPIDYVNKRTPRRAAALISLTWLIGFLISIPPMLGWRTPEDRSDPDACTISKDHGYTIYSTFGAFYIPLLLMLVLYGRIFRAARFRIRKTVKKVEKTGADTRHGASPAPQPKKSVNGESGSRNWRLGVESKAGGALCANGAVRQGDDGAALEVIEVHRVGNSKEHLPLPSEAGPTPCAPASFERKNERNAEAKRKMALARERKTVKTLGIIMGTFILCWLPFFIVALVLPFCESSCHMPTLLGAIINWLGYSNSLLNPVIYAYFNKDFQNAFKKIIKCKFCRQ

dopaminergic receptors = experiment: Binding to dopaminergic receptors (in vitro profiling); details: in contrast to LSD
D2 receptors = D2 receptors (Homo sapiens, UniProt P14416); details: cited from earlier work
D2 receptors, sequence (P14416 whole entry): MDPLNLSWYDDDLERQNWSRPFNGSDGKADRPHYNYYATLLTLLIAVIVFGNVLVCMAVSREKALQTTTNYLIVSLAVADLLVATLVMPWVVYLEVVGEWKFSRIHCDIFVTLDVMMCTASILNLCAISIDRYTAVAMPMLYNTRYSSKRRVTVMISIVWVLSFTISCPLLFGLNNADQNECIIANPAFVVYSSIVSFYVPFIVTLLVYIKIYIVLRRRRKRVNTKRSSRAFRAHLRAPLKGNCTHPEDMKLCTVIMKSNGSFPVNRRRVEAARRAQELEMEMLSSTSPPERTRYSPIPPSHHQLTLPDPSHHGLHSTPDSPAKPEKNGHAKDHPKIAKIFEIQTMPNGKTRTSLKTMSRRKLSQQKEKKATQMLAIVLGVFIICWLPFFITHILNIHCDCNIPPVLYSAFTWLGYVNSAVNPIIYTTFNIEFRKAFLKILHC

5-HT transporter (SERT) = 5-HT transporter (SERT) (Homo sapiens, UniProt P31645); details: cited from earlier work
5-HT transporter (SERT), sequence (P31645 whole entry): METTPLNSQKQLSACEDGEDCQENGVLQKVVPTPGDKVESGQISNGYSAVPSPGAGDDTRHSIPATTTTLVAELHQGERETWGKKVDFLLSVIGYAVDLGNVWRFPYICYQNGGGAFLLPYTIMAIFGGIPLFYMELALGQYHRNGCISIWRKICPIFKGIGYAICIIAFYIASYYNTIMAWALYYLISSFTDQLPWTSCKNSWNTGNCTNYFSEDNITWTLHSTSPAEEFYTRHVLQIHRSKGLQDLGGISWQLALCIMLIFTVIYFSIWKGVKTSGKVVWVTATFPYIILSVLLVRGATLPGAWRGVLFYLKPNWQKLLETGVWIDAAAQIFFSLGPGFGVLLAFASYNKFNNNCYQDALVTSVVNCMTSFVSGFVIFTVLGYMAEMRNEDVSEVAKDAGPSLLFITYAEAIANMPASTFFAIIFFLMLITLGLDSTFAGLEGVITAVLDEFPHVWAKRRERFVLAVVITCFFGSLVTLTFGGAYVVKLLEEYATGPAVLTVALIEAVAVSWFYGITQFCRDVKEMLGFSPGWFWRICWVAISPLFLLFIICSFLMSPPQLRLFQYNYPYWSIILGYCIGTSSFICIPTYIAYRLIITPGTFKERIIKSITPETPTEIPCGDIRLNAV

[1] = humans (Charalampous, 1966); cited from earlier work
[2] = target: T3, serotonin 5-HT2A receptor (Homo sapiens, UniProt P28223); details: background art; cited from earlier work
T3 sequence (P28223 whole entry): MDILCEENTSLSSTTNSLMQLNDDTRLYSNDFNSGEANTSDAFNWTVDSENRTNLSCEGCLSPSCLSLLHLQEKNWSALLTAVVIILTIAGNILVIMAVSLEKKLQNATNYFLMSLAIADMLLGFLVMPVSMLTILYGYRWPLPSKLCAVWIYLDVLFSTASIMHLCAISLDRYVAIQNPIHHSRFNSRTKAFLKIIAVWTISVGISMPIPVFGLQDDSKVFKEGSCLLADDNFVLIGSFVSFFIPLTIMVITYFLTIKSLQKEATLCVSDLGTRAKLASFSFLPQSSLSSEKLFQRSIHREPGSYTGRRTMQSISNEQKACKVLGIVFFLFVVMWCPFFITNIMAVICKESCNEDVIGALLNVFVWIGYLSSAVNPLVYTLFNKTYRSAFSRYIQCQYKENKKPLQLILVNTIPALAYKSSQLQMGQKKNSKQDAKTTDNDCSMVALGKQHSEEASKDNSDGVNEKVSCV

[3] = target: T3, serotonin 5-HT2A receptor; experiment: 5-HT2A receptor binding (in vitro profiling at key targets)
[4] = humans, cited from earlier work
monoamine transporters = experiment: Inhibition of monoamine transport (in vitro profiling); format: biochemical
Description: Activity of compounds at monoamine transporters are thought to mediate MDMA-like empathogenic effects (Hysek et al., 2012). Importantly, mescaline is a very weak 5-HT2A receptor ligand and high doses are needed to induce psychoactive effects in humans. However, despite its low potency, mescaline can have extraordinarily strong psychedelic effects in humans at high doses and the same is likely the case for the substances developed within the present invention although 10-20-fold higher potency is also possible in some compounds, to be evaluated in detail clinically. Key results of pharmacological profiling of the compounds described herein were: […]

[5] = Duration of action and potency of mescaline derivatives; design: species or system humans; details: in vivo
Description: Together, the in vitro profiles of mescaline and its derivatives represented in FIG. 1 compared with that of psilocin and LSD indicate overall psychedelic properties of all compounds but also differences that likely manifest when used in humans. Accordingly, some mescaline derivatives will exert psychedelic acute effect profiles that are more beneficial to some patients including but not limited to: more overall positive effects, more or less perceptual effects, more emotional effects, less anxiety, less cardio-stimulant effects, less adverse effects, less nausea, longer and also shorter effects among other properties and compared to mescaline. Specifically, taken together the pharmacological data and structural specifics on the substances tested herein some compounds are of particular interest. FE and FP have a relatively short duration of action (<6 hours) compared with mescaline and potentially empathogenic MDMA-like effects.
The compounds represented by FIG. 1 act with shorter, with similar or with longer duration of action in human in comparison to the original mescaline molecule. This is triggered by modification of the molecular structure in FIG. 1.

5-HT2A receptor, sequence (P28223 whole entry): as above

## CN(C)CCc1c[nH]c2ccccc12 [DMT, N,N-dimethyltryptamine]
5-HT2A receptor
  agonism / stimulation of the 5-HT2A receptor (in words): agonists

## COc1cc(CCN)cc(OC)c1OC [mescaline]
α2A receptors
  binding to α2A receptors (in words): rather low concentration range
5-HT1A receptor
  binding to 5-HT1A receptor (in words): rather low concentration range
5-HT2A receptor
  agonism / stimulation of the 5-HT2A receptor (in words): agonists
Dopaminergic receptors
  binding to dopaminergic receptors (in words): did not relevantly bind
D2 receptors
  affinity / activity at D2 receptors (in words): no affinity
5-HT transporter (SERT)
  interaction with / inhibition of SERT (in words): do not interact
[1]
  eliminated in urine unchanged, fraction of the dose ingested: up to two thirds
  plasma half-life: approximately 6 hours
[2]
  binding to 5-HT2A receptor (in words): rather low concentration range
[3]
  5-HT2A receptor binding affinity / binding potency (in words): very weak
[4]; dose-dependently
  subjective effects last (duration): 10 to 16 h
[4]; psychoactive doses
  subjective effects appear (onset): ≤ 30 min
  subjective effects peak: 4 h
[4]
  doses needed to induce a full psychedelic experience: 200 to 800 mg
Monoamine transporters
  inhibition of monoamine transport (in words): did not inhibit monoamine transport

## COc1cc(CCN)cc(OC)c1OCC(F)(F)F.Cl [TFE, 3,5-Dimethoxy-4-(2,2,2-trifluoroethoxy)phenethylamine hydrochloride]
[5]
  potency (in words): relatively potent

## CN(C)CCc1c[nH]c2cccc(O)c12 [Psilocin]
5-HT2A receptor
  agonism / stimulation of the 5-HT2A receptor (in words): stimulates
5-HT transporter (SERT)
  interaction with / inhibition of SERT (in words): inhibits

## COc1cc(CCN)cc(OC)c1OC(F)F.Cl [DFM, 4-Difluoromethoxy-3,5-dimethoxyphenethylamine hydrochloride]
[5]
  potency (in words): relatively potent

## CCN(CC)C(=O)[C@@H]1C=C2c3cccc4[nH]cc(c34)C[C@H]2N(C)C1 [LSD, lysergic acid diethylamide]
5-HT2A receptor
  agonism / stimulation of the 5-HT2A receptor (in words): agonists; also recorded: potently stimulates
D2 receptors
  affinity / activity at D2 receptors (in words): has activity
